Results published in patent US11000485B2, “Substituted hydroxystilbenes as AhR and Nrf2 modulators and their therapeutic applications” (Resolvex Pharmaceuticals Inc., priority 2017, dated 2021).
pEC50, pIC50: −log10 of the molar value.

Legend:
[1] = test system: MDA-MB-435 cells; assay: Cell viability (MTS); format: cell-based
Experimental: (§1) Cells were cultured in RPMI-1640 containing 10% FBS (Jurkat and THP-1) or DMEM containing 10% FBS (A549 and MDA-MB-435). On Day 1, 1-5×10^4 cells per well in 100 μL of the cell culture medium containing 0.5% FBS were seeded into a 96-well flat bottom plate. On Day 2, the test compounds were added to the culture at different concentrations in triplicates. The controls include triplicates of no compound treatment and cell culture medium without cells. The cells were incubated at 5% CO2, 37° C. for 48 hours. On Day 4, MTS reagent was added to each well and incubated at 37° C. for 4 hours. The absorbance was read at 490 nm. The percentage of inhibition was calculated using the formula: [1-(experiment reading-background reading)/(negative control reading-background reading)]×100.

[2] = test system: Jurkat cells; assay: Cell viability (MTS); format: cell-based; settings: 48 hours
Experimental: as §1

[3] = test system: THP1 cells; assay: Cell viability (MTS); format: cell-based
Experimental: as §1

[4] = molecular target: T1, recombinant human PDE4B1 enzyme (Homo sapiens, UniProt Q07343); assay: PDE4B1 radiometric enzyme assay; format: biochemical; settings: for Inhibitory activity on PDE4B1 enzyme: 1 μM cAMP
T1 construct: host or cells: baculoviral system
T1 sequence (Q07343 whole entry): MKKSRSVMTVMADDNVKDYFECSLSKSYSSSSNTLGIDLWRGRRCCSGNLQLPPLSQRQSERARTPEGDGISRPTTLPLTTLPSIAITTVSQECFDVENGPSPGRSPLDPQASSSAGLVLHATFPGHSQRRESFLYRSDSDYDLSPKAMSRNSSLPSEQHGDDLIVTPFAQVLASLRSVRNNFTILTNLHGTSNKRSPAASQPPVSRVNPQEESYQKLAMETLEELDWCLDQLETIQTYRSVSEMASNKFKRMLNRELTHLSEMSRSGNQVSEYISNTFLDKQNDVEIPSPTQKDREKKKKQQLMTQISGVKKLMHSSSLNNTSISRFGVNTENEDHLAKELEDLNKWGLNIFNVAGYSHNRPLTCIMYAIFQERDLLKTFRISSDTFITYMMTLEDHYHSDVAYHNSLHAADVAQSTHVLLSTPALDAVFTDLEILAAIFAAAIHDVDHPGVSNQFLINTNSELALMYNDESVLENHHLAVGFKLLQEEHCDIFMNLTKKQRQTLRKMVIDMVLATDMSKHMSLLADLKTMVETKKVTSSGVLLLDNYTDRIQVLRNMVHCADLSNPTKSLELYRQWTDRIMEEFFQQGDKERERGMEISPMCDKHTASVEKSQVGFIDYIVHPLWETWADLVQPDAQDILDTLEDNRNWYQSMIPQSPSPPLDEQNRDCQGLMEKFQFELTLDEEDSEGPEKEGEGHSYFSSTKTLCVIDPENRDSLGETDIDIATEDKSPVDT
Experimental: Assays were performed using recombinant human PDE4B1 enzyme expressed in a baculoviral system. […] The reactions were performed at 1 μM of cAMP. The test articles were each tested at 0.2 μM and 20 μM in triplicates.

[5] = test system: A549 cells; assay: Cell viability (MTS); format: cell-based
Experimental: as §1

[6] = molecular target: JAK2 (Homo sapiens, UniProt O60674); assay: Kinase profiling, recombinant kinase; format: biochemical; settings: 5 uM ATP
JAK2, sequence (O60674 whole entry, species assumed): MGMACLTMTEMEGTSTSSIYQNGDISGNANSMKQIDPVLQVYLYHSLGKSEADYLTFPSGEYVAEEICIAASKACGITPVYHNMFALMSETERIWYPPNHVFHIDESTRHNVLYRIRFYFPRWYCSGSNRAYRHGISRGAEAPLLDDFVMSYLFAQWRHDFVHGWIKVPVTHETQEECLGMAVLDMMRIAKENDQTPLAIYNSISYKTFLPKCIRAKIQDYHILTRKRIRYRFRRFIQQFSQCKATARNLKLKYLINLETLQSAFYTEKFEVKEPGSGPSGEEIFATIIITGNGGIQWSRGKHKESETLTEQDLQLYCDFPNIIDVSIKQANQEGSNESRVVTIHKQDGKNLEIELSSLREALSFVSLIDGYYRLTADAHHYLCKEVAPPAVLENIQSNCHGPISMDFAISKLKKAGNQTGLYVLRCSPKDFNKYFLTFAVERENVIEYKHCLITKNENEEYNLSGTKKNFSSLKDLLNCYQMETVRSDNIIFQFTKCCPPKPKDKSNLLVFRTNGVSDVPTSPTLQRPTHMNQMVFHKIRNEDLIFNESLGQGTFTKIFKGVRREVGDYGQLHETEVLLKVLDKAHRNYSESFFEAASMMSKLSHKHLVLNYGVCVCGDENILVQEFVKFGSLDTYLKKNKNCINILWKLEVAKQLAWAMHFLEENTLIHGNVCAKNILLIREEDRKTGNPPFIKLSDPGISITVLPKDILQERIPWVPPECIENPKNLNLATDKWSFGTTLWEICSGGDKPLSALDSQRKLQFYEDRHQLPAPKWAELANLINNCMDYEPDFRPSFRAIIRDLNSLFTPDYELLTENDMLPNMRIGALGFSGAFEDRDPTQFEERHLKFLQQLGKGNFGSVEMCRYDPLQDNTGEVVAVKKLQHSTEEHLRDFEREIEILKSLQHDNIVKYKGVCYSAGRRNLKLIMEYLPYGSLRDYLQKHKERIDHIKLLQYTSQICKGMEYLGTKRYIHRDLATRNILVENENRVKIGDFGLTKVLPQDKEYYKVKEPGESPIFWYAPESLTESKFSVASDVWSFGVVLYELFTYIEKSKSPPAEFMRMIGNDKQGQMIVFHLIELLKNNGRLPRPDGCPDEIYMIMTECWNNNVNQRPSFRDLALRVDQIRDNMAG
Experimental: (§2) Kinase profiling was conducted using different recombinant kinase targets against the compounds at 5 uM ATP. The kinases tested included AKT1 (RAC-alpha serine/threonine-protein kinas 1), JAK2, JAK3, p38α, p38β (p38 mitogen-activated protein kinase beta), GSK3β, SYK (Spleen tyrosine kinase), LCK, IKKα and IKKβ and CLK4. The test compounds were tested at 5 μM and 50 μM in triplicates.

[7] = molecular target: p38 α (Homo sapiens, UniProt Q16539); assay: Kinase profiling, recombinant kinase; format: biochemical; settings: 5 uM ATP
Experimental: as §2

[8] = molecular target: AKT1 (Homo sapiens, UniProt P31749); assay: Kinase profiling, recombinant kinase; format: biochemical; settings: 5 uM ATP
Experimental: as §2

[9] = molecular target: JAK3 (Homo sapiens, UniProt P52333); assay: Kinase profiling, recombinant kinase; format: biochemical; settings: 5 uM ATP
JAK3, sequence (P52333 whole entry, species assumed): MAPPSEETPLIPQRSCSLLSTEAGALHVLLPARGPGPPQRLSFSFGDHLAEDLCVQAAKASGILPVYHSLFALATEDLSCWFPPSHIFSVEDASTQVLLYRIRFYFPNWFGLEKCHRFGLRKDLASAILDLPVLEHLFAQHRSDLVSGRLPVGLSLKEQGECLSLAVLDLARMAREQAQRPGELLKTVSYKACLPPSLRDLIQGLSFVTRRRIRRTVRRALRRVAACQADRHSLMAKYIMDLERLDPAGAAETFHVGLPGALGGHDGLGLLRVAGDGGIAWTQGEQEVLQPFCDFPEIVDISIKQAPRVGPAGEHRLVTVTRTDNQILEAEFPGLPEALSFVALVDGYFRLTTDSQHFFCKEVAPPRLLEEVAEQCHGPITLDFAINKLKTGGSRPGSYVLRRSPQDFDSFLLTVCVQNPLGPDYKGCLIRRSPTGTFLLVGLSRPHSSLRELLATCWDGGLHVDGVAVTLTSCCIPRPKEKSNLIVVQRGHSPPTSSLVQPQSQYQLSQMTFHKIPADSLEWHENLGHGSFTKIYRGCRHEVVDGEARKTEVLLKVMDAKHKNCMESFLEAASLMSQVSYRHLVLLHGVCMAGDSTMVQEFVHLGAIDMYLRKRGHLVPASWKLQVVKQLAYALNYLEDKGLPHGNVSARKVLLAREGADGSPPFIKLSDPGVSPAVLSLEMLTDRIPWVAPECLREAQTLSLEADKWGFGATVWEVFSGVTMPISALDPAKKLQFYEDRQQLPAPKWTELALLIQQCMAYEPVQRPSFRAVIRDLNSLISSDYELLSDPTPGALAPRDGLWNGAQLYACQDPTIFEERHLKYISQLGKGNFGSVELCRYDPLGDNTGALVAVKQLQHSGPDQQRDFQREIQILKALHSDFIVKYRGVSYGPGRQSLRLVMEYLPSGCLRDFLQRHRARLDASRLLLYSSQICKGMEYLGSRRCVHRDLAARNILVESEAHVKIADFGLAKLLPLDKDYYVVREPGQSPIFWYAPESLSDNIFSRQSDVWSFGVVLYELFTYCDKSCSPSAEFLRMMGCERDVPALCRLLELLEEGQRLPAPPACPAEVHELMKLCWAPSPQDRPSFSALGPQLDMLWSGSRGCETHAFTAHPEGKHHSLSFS
Experimental: as §2

[10] = molecular target: LCK (Homo sapiens, UniProt P06239); assay: Kinase profiling, recombinant kinase; format: biochemical; settings: 5 uM ATP
LCK, sequence (P06239 whole entry, species assumed): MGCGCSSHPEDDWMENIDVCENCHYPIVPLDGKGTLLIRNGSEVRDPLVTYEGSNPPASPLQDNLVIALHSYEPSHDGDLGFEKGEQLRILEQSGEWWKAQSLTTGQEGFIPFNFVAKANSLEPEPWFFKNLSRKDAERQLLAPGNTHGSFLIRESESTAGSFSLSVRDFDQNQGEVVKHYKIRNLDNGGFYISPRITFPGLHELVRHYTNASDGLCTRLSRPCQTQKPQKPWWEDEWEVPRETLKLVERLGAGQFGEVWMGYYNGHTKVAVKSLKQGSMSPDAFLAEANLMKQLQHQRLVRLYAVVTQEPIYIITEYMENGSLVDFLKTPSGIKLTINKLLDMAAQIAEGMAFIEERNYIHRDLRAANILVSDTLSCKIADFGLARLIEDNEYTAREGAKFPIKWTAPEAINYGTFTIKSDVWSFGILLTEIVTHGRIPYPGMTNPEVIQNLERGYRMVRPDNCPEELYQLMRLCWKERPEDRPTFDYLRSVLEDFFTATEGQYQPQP
Experimental: as §2

[11] = molecular target: CLK4 (Homo sapiens, UniProt Q9HAZ1); assay: Kinase profiling, recombinant kinase; format: biochemical; settings: 5 uM ATP
Experimental: as §2

[12] = molecular target: p38 β (Homo sapiens, UniProt Q15759); assay: Kinase profiling, recombinant kinase; format: biochemical; settings: 5 uM ATP
Experimental: as §2

[13] = molecular target: SYK (Homo sapiens, UniProt P43405); assay: Kinase profiling, recombinant kinase; format: biochemical; settings: 5 uM ATP
Experimental: as §2

[14] = molecular target: IKK α (Homo sapiens, UniProt O15111); assay: Kinase profiling, recombinant kinase; format: biochemical; settings: 5 uM ATP
IKK α, sequence (O15111 whole entry, species assumed): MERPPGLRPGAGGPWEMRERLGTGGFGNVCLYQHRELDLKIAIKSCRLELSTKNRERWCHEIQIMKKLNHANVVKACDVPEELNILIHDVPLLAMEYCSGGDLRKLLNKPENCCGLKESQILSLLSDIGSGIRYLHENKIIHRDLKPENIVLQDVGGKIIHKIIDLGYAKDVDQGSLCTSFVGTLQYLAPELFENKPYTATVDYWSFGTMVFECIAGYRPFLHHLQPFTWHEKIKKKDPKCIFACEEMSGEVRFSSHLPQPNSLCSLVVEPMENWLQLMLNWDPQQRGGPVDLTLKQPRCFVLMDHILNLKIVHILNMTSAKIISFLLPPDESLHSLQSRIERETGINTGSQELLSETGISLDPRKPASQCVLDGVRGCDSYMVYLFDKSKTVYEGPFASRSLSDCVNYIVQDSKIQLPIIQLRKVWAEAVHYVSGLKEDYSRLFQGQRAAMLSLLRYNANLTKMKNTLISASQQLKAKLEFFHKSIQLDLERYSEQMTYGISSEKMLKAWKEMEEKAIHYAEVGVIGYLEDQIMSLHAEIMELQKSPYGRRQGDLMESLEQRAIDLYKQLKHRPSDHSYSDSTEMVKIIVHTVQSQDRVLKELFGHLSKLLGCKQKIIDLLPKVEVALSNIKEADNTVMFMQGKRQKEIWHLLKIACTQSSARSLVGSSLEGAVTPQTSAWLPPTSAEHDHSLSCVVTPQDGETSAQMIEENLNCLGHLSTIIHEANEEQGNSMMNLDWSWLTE
Experimental: as §2

[15] = molecular target: GSK3 β (Homo sapiens, UniProt P49841); assay: Kinase profiling, recombinant kinase; format: biochemical; settings: 5 uM ATP
Experimental: as §2

[16] = molecular target: IKK β (Homo sapiens, UniProt O14920); assay: Kinase profiling, recombinant kinase; format: biochemical; settings: 5 uM ATP
IKK β, sequence (O14920 whole entry, species assumed): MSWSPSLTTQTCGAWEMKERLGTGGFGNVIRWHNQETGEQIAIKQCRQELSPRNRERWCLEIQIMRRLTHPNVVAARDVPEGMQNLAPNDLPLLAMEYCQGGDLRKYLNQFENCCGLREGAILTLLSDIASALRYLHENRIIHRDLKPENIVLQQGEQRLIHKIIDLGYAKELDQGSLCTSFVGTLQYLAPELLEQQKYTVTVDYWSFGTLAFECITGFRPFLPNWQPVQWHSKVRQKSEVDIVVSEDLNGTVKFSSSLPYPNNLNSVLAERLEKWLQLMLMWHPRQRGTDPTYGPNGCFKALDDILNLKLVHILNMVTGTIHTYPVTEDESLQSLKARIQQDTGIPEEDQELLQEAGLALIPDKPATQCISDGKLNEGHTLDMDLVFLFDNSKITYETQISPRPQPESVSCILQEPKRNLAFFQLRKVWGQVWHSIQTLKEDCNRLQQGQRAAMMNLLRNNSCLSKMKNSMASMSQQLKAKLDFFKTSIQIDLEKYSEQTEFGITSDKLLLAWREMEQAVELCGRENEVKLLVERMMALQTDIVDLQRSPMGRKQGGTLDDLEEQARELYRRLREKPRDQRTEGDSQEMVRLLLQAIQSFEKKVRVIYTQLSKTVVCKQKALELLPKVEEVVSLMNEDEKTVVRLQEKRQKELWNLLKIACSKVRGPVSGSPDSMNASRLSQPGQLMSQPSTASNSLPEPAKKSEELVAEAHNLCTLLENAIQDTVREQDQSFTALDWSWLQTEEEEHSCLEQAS
Experimental: as §2

[17] = test system: MDA-MB-435 cells; assay: Cell proliferation ([3H]-thymidine); format: cell-based; settings: read-out: Anti-proliferation IC50, MDA-MB-435
Experimental: (§3) Cells were cultured in RPMI-1640 containing 10% FBS (Jurkat) or DMEM containing 10% FBS (MDA-MB-435). On Day 1, 1×10^4 cells were seeded into one well of a 96-well white ISOPLATE™ with 0.5% FBS. The cells were cultured at 5% CO2, 37° C. overnight. On Day 2, the diluted test compounds were added into each well in a total volume of 100 μL of cell culture medium. For each cell line were set up three wells containing cells and only diluted DMSO as a negative (vehicle) control, and three wells without cells but containing the same volume and type of cell culture medium as background control. The cells were incubated at 5% CO2, 37° C. for 24 hours. On Day 3, 1 μL of [^3H]-thymidine was added into each well and incubation at 5% CO2, 37° C. was continued for another 24 hours. On Day 4, 30 μL of 50% TCA was added into each well and was incubated at 4° C. for 4 hours. Plates were washed with ddH2O four times and then air dried for 30 minutes followed by the addition of 100 μL of scintillation fluid into each well. The radioactivity was read using MICROBETA TRILUX™. The percentage of inhibition was calculated using the formula [1-(experiment reading-background reading)/(negative control reading-background reading)]×100.

[18] = test system: Jurkat cells; assay: Cell proliferation ([3H]-thymidine); format: cell-based; settings: 48 hours, read-out: Anti-proliferation IC50, Jurkat
Experimental: as §3

[19] = molecular target: T2, Aryl Hydrocarbon Receptor (AhR) (Homo sapiens, UniProt P35869); assay: AhR-CYP1A1-bla LS-180 beta-lactamase reporter assay; format: cell-based; settings: AhR-CYP1A1-bla LS-180 cells, 24 hours; read-out: EC50, AhR activation
T2 construct: host or cells: AhR-CYP1A1-bla LS-180
Experimental: This assay was performed using Invitrogen's CellSensor® cell line AhR-CYP1A1-bla LS-180 with GeneBLAzer® Beta-lactamase (bla) Reporter Technology as the detection method. When the AhR-CYP1A1 pathway is activated or inhibited, Beta-lactamase reporter activity is modulated and is measured quantitatively and selectively with the LiveBLAzer™-FRET B/G Loading Substrate.
Briefly, the AhR-CYP1A1-bla LS-180 cells were grown in Growth Media (MEM, 10% FBS, 0.1 mM NEAA, 1 mM Sodium Pyruvate). Cells were dissociated and resuspended in Assay Media (OPTI-MEM, 0.5% dialyzed FBS, 0.1 mM NEAA, 1 mM Sodium Pyruvate). Around 2×10^4 cells in a volume of 32 μL of assay media was added to each well of a 384 well Poly-D-Lysine assay plate. After incubation for 16 hours at 37° C. in a humidified incubator, 4 μL of a 10× serial dilution of test compounds were added to appropriate wells of the plate. The plate was incubated for 24 hours at 37° C. For the reporter activity assay, 8 μL of 1 μM Substrate was added to each well and the plate was incubated for 2 hours at room temperature. The plate was read on a fluorescence plate reader.

[20] = molecular target: AMPK (A1/B1/G1) (Homo sapiens, UniProt Q13131); assay: Kinase profiling, recombinant kinase; format: biochemical; settings: 5 uM ATP
[21] = test system: IL-8; assay: BioMap BF4T lung epithelium inflammation system; format: cell-based; settings: stimulated human primary bronchial epithelial cells, 24 hours, ELISA
Experimental: (§4) The compounds were assayed in the Eurofin's BioMap system (BF4T Cells) which models Th2-type lung inflammation, an environment that promotes the recruitment of eosinophils, mast cells, neutrophils, and basophils as well as effector memory T cells. This system is relevant for allergy and asthma, pulmonary fibrosis, as well as chronic obstructive pulmonary disorder (COPD) exacerbations. The human primary bronchial epithelial cells were cultured and stimulated to induce the inflammatory factors responsible for the pathogenesis of various inflammatory diseases in the lung. The test compounds were added to the in vitro model culture system and incubated for 24 hours. The supernatants were collected and assayed for the protein production of various molecules using ELISA assays. The biomarkers assayed included MCP-1, Eotaxin-3, VCAM-1, ICAM-1, CD90, IL-8, IL1α, Keratin 8/18, MMP1, MMP-3, MMP-9, PAI-1, SRB, tPA, and uPA.

[22] = test system: VCAM-1; assay: BioMap BF4T lung epithelium inflammation system; format: cell-based; settings: stimulated human primary bronchial epithelial cells, 24 hours, ELISA
Experimental: as §4

[23] = test system: IL-1α; assay: BioMap BF4T lung epithelium inflammation system; format: cell-based; settings: stimulated human primary bronchial epithelial cells, 24 hours, ELISA
Experimental: as §4

[24] = test system: ICAM-1; assay: BioMap BF4T lung epithelium inflammation system; format: cell-based; settings: stimulated human primary bronchial epithelial cells, 24 hours, ELISA
Experimental: as §4

[25] = test system: dextran sodium sulphate (DSS) induced model of inflammatory bowel disease (IBD)/colitis; assay: DSS induced model of IBD/colitis; format: in vivo, female Balb/c mice; settings: Day 0 to Day 8, DSS control group 24.2+5.7, normal control 1.9+2.4
Experimental: The efficacy of Compound 2 was tested in a dextran sodium sulphate (DSS) induced model of inflammatory bowel disease (IBD)/colitis in female Balb/c mice. Rolipram was used as a positive control in this experiment. Colitis was induced in the mice by providing drinking water containing DSS (3.5%, M. Wt. 30,000-50,000) from Day 0 to Day 8. The test compounds were administered as per their respective groups at specific dose levels starting from Day 0 through to Day 8. […] For dosing, Compound 2 was dissolved in vehicle (1.5% Cremophor EL) at 3 mg/mL and 1 mg/mL for the 30 and 10 mg/kg doses, respectively. […] All doses were administered by oral gavage.
There was a considerable increase in disease activity index (DAI) (cumulative scores of body weight, stool consistency and rectal bleeding) in the DSS control group (24.2+5.7) when compared to normal control group (1.9+2.4) which indicated very good disease induction.

[26] = read-out: Inhibitory activity on PDE4B1 enzyme
[27] = Homo sapiens, MDA-MB-435, 48 hours

`CC(C)c1ccc(/C=C/c2ccccc2)cc1O` [Compound 1] was tested, and the pIC50 ([1]; 48 hours) was 4.60, the pIC50 [2] was 5.67 and the pIC50 ([3]; 48 hours) was 5.65.

With `CC(C)c1ccc(/C=C/c2ccc(F)cc2)cc1O` [Compound 2, 3-hydroxy-4-isopropyl-4′-fluoro-(E)-stilbene] the inhibition at 0.2 µM [4, 26] was 15 to 30%, the inhibition at 20 µM [4, 26] was > 50% and the pIC50 [1, 27] was 4.60. It also gave a pIC50 ([2]; Homo sapiens, Jurkat) of 5.12, a pIC50 ([3]; Homo sapiens, THP-1, 48 hours) of 5.50 and a pIC50 ([5]; Homo sapiens, A549, 48 hours) of 4.35. The inhibition at 5 µM ([6]; 5 μM compound) was < 20%, the inhibition at 50 µM ([6]; 50 μM compound) was > 50% and the inhibition at 5 µM ([7]; 5 μM compound) was < 20%. The inhibition at 50 µM ([7]; 50 μM compound) was > 50%, the inhibition at 5 µM ([8]; 5 μM compound) was < 20% and the inhibition at 50 µM ([8]; 50 μM compound) was < 20%. For the same compound, the inhibition at 5 µM ([9]; 5 μM compound) was < 20%, the inhibition at 50 µM ([9]; 50 μM compound) was 20 to 30% and the inhibition at 5 µM ([10]; 5 μM compound) was < 20%. For the same compound, the inhibition at 50 µM ([10]; 50 μM compound) was 31 to 50%, the inhibition at 5 µM ([11]; 5 μM compound) was > 50% and the inhibition at 50 µM ([11]; 50 μM compound) was > 50%. The inhibition at 5 µM ([12]; 5 μM compound) was < 20%, the inhibition at 50 µM ([12]; 50 μM compound) was 20 to 30% and the inhibition at 5 µM ([13]; 5 μM compound) was < 20%. For the same compound, the inhibition at 50 µM ([13]; 50 μM compound) was < 20%, the inhibition at 5 µM ([14]; 5 μM compound) was < 20% and the inhibition at 50 µM ([14]; 50 μM compound) was < 20%. For the same compound, the inhibition at 5 µM ([15]; 5 μM compound) was < 20%, the inhibition at 50 µM ([15]; 50 μM compound) was > 50% and the inhibition at 5 µM ([16]; 5 μM compound) was < 20%. It also gave an inhibition at 50 µM ([16]; 50 μM compound) of 31 to 50%, a pIC50 [17, 27] of 5.22 and a pIC50 ([18]; Homo sapiens, Jurkat) of 5.78. For the same compound, the pEC50 [19] was 7.57, the inhibition at 5 µM ([20]; 5 μM compound) was < 20% and the inhibition at 50 µM ([20]; 50 μM compound) was > 50%. The “effect on production of IL-8” value [21] was “suppress the production”, the “effect on production of VCAM-1” value [22] was “suppress the production” and the “effect on production of IL-1α” value [23] was “suppress the production”. For the same compound, the “effect on production of ICAM-1” value [24] was “suppress the production”, the “disease activity index (DAI) (cumulative scores of body weight, stool consistency and rectal bleeding)” value ([25]; 10 mg/kg oral gavage) was 17.4+12.0 and the “disease activity index (DAI) (cumulative scores of body weight, stool consistency and rectal bleeding)” value ([25]; 30 mg/kg oral gavage) was 15.4+4.9.

Work on `Oc1cc(/C=C/c2ccccc2)ccc1C1CC1` [Compound 11] yielded a pIC50 ([17]; 48 hours) of 5.37 and a pIC50 [18] of 5.77.

For `Oc1cc(/C=C/c2ccc(F)cc2)ccc1C1CC1` [Compound 12], the “Inhibitory activity on PDE4B1 enzyme” value ([4]; 0.2 μM compound) was “+ (“+” is 15-30% inhibition)”, the “Inhibitory activity on PDE4B1 enzyme” value ([4]; 20 μM compound) was “+++ (“+++” is greater than 50% inhibition)” and the pIC50 ([1]; 48 hours) was 5.79. For the same compound, the pIC50 [2] was 5.78, the pIC50 ([3]; 48 hours) was 4.81 and the pIC50 ([5]; 48 hours) was 4.49.

`N#Cc1ccc(/C=C/c2ccc(C3CC3)c(O)c2)c(C#N)c1` [Compound 17] gave a pIC50 ([1]; 48 hours) of 5.75, a pIC50 [2] of 5.10 and a pIC50 ([3]; 48 hours) of 5.56. The pIC50 ([17]; 48 hours) was 5.78 and the pIC50 [18] was 5.86.
